From the supplement of paper PMC10307832

What follows are cell lines tested with COC1=CC=C(C=C1)CN2C=CC3=C2C=C(C=C3)C(=O)NO + O=C(CCCCCCC(=O)Nc1ccccc1)NO [Vorinostat] (partner 1 µM) (assay: relative viability (nuclei count vs DMSO), 5 days (fraction); higher = more cells survive). Conditions: first compound 0.08 µM.
How it was run: (§1)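 One day after seeding in 1536-well plates, lung cancer cell lines were dosed by pin tool. Dosing was either single-drug or a fixed anchor-drug dose plus five library-drug doses (not always all listed) in √10 steps. After 5 days, nuclei were stained in one fix-and-stain step and counted on 4× images, and relative viability is the nuclei count of treated wells over that of vehicle wells, given as the median of duplicate plates.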

Row | Cell Line | relative viability
1 | LC-2-ad | 0.58
2 | SW 900 | 0.477
3 | NCI-H1651 | 0.52
4 | COR-L23 | 0.273
5 | HCC-827 | 0.592
6 | LCLC-103H | 0.647
7 | RERF-LC-KJ | 0.624
8 | NCI-H3122 | 0.752
9 | BEN | 0.566
10 | UMC-11 | 0.149
11 | NCI-H2085 | 0.835
12 | A-427 | 0.694
13 | NCI-H727 | 1.13
14 | NCI-H838 | 0.285
15 | 201T | 0.813
16 | NCI-H2228 | 0.496
17 | NCI-H1666 | 0.945
18 | NCI-H650 | 0.337
19 | NCI-H1993 | 0.527
20 | NCI-H647 | 0.457
21 | NCI-H2126 | 0.79
22 | NCI-H1755 | 0.694
23 | PC-3 [JPC-3] | 0.786
24 | NCI-H2087 | 0.276
25 | NCI-H441 | 0.74
26 | HOP-62 | 0.39
27 | NCI-H2170 | 0.76

Same assay, conditions: first compound 0.253 µM

Row | Cell Line | relative viability
28 | PC-14 | 0.667
29 | LXF-289 | 0.815
30 | LC-2-ad | 0.742
31 | SW 900 | 0.334
32 | NCI-H1651 | 0.512
33 | COR-L23 | 0.456
34 | HCC-827 | 0.897
35 | NCI-H522 | 0.982
36 | LCLC-103H | 0.832
37 | RERF-LC-KJ | 0.672
38 | NCI-H3122 | 1.08
39 | BEN | 0.566
40 | UMC-11 | 0.467
41 | LCLC-97TM1 | 0.659
42 | NCI-H2085 | 0.828
43 | NCI-H727 | 1.17

Row | Cell Line | relative viability
44 | NCI-H838 | 0.614
45 | NCI-H1793 | 0.832
46 | 201T | 0.952
47 | NCI-H2228 | 0.869
48 | LOU-NH91 | 0.953
49 | NCI-H1666 | 1.09
50 | NCI-H650 | 0.414
51 | ChaGo-K-1 | 0.837
52 | NCI-H1993 | 1.21
53 | NCI-H647 | 0.738
54 | NCI-H2126 | 0.815
55 | NCI-H1755 | 0.884
56 | NCI-H2087 | 0.649
57 | NCI-H441 | 0.888
58 | HOP-62 | 0.666
59 | NCI-H2170 | 0.958

Same assay, conditions: first compound 0.8 µM

Row | Cell Line | relative viability
60 | PC-14 | 0.725
61 | LXF-289 | 0.813
62 | LC-2-ad | 0.748
63 | SW 900 | 0.441
64 | NCI-H1651 | 0.498
65 | COR-L23 | 0.455
66 | HCC-827 | 0.799
67 | NCI-H522 | 1.03
68 | LCLC-103H | 0.868
69 | RERF-LC-KJ | 0.66
70 | NCI-H3122 | 1.01
71 | BEN | 0.591
72 | UMC-11 | 0.428
73 | LCLC-97TM1 | 0.772
74 | NCI-H2085 | 0.828
75 | A-427 | 0.826
76 | NCI-H727 | 1.22

Row | Cell Line | relative viability
77 | NCI-H838 | 0.75
78 | NCI-H1793 | 0.801
79 | 201T | 0.967
80 | NCI-H2228 | 0.639
81 | LOU-NH91 | 0.906
82 | NCI-H1666 | 1.01
83 | NCI-H650 | 0.437
84 | ChaGo-K-1 | 0.772
85 | NCI-H1993 | 0.901
86 | NCI-H647 | 0.802
87 | NCI-H2126 | 0.812
88 | NCI-H1755 | 0.777
89 | PC-3 [JPC-3] | 0.668
90 | NCI-H2087 | 1.26
91 | NCI-H441 | 0.902
92 | HOP-62 | 0.528
93 | NCI-H2170 | 0.799

Same assay, conditions: first compound 2.53 µM

Row | Cell Line | relative viability
94 | PC-14 | 0.733
95 | LXF-289 | 0.797
96 | LC-2-ad | 0.701
97 | SW 900 | 0.733
98 | NCI-H1651 | 0.464
99 | COR-L23 | 0.518
100 | HCC-827 | 0.799
101 | NCI-H522 | 0.909
102 | LCLC-103H | 0.748
103 | RERF-LC-KJ | 0.758
104 | NCI-H3122 | 1.17
105 | BEN | 0.543
106 | UMC-11 | 0.375
107 | LCLC-97TM1 | 0.557
108 | NCI-H2085 | 0.828
109 | A-427 | 0.847
110 | NCI-H727 | 1.25

Row | Cell Line | relative viability
111 | NCI-H838 | 0.771
112 | NCI-H1793 | 0.816
113 | 201T | 0.986
114 | NCI-H2228 | 0.431
115 | LOU-NH91 | 0.963
116 | NCI-H1666 | 1.09
117 | NCI-H650 | 0.477
118 | ChaGo-K-1 | 0.706
119 | NCI-H1993 | 0.842
120 | NCI-H647 | 0.702
121 | NCI-H2126 | 0.807
122 | NCI-H1755 | 0.876
123 | PC-3 [JPC-3] | 0.756
124 | NCI-H2087 | 0.809
125 | NCI-H441 | 0.844
126 | HOP-62 | 0.748
127 | NCI-H2170 | 0.787

Same assay, conditions: first compound 8 µM

Row | Cell Line | relative viability
128 | PC-14 | 0.782
129 | LXF-289 | 0.668
130 | LC-2-ad | 0.592
131 | SW 900 | 0.358
132 | NCI-H1651 | 0.475
133 | COR-L23 | 0.502
134 | HCC-827 | 0.788
135 | NCI-H522 | 0.845
136 | LCLC-103H | 0.613
137 | RERF-LC-KJ | 0.632
138 | NCI-H3122 | 0.982
139 | BEN | 0.548
140 | UMC-11 | 0.506
141 | LCLC-97TM1 | 0.438
142 | NCI-H2085 | 0.807
143 | A-427 | 0.794
144 | NCI-H727 | 1.25

Row | Cell Line | relative viability
145 | NCI-H838 | 0.737
146 | NCI-H1793 | 0.759
147 | 201T | 0.868
148 | NCI-H2228 | 0.826
149 | LOU-NH91 | 0.884
150 | NCI-H1666 | 1.04
151 | NCI-H650 | 0.34
152 | ChaGo-K-1 | 0.558
153 | NCI-H1993 | 0.73
154 | NCI-H647 | 0.515
155 | NCI-H2126 | 0.702
156 | NCI-H1755 | 0.725
157 | PC-3 [JPC-3] | 0.587
158 | NCI-H2087 | 0.663
159 | NCI-H441 | 0.637
160 | HOP-62 | 0.531
161 | NCI-H2170 | 0.713

Each cell line was assayed with COC1=CC=C(C=C1)CN2C=CC3=C2C=C(C=C3)C(=O)NO + Cc1nc(Nc2ncc(C(=O)Nc3c(C)cccc3Cl)s2)cc(N2CCN(CCO)CC2)n1 [Dasatinib] (partner 0.075 µM) in the same assay as above. Conditions: first compound 0.08 µM.
How it was run: as §1

Row | Cell Line | relative viability
162 | PC-14 | 0.236
163 | LC-2-ad | 0.407
